Values quoted from earlier work as cited in PubChem BioAssay AID1259409 (Chemical Carcinogenesis Research Information System (CCRIS), 2018).

Tested on: rodent chemically induced tumor inhibition, incidence and multiplicity
Assay: CCRIS tumor inhibitor studies

## CCOC(=O)/C=C(C)/C=C/C=C(C)/C=C/c1c(C)cc(O)c(C)c1C
Carcinogen: 7,12-DIMETHYLBENZ[A]ANTHRACENE, 57-97-6, Dose [Inhibitor]: 140 NMOL IN 0.2 ML ACETONE 2/WK (D 1 AND D 4 OF EACH WK) 1 HR BEFORE EACH PROMOTER APPLICATION STARTING 14 D AFTER CARCI, Route [Inhibitor]: DERMAL, Species: MOUSE, Strain/Sex: CD-1/FEMALE, Target Tissue: Type of Lesion: SKIN: PAPILLOMA, Dose [Carcinogen]: 0.2 UMOL IN 0.2 ML ACETONE ONCE, Promoter: 12-O-TETRADECANOYLPHORBOL-13-ACETATE, 16561-29-8
  tumour outcome (control, treated, inhibition, significance): 90%, 95%, -6%, not significant

## CC/C=C\C/C=C\C/C=C\CCCCCCCC(=O)OC[C@H](CO[C@@H]1O[C@H](CO[C@H]2O[C@H](CO)[C@H](O)[C@H](O)[C@H]2O)[C@H](O)[C@H](O)[C@H]1O)OC(=O)CCCCCCCCCCCCC
Carcinogen: 7,12-DIMETHYLBENZ[A]ANTHRACENE, 57-97-6, Dose [Inhibitor]: 0, 85 NMOL IN 0.1 ML ACETONE 2/WK FOR 20 WK APPLIED 1 HR PRIOR TO EACH PROMOTER DOSE (STUDY DURATION: 21 WK), Route [Inhibitor]: DERMAL, Species: MOUSE, Strain/Sex: ICR/FEMALE, Target Tissue: Type of Lesion: SKIN: PAPILLOMA, Dose [Carcinogen]: 390 NMOL IN 0.1 ML ACETONE ONCE, Promoter: 12-O-TETRADECANOYLPHORBOL-13-ACETATE, 16561-29-8
  tumour outcome (control, treated, inhibition, significance): 100%, 68%, 32%, p<0.05

## NCCOc1c(Cl)cc(Cl)cc1-c1ccccc1
Carcinogen: ETHYL CARBAMATE, 51-79-6, Dose [Inhibitor]: 0, 0.04 MG/G PER DOSE IN 0.01 ML OF 0.9% SALINE ADMINISTERED IN 4 DOSES AT 3 HR INTERVALS BEGINNING 30 MIN PRIOR TO CARC, Route [Inhibitor]: INTRAPERITONEAL, Species: MOUSE, Strain/Sex: B6C3F1/MALE, Target Tissue: Type of Lesion: LIVER: HEPATOMA, Dose [Carcinogen]: 0.125 MG/G ONCE, Promoter: NONE USED
  tumour outcome (control, treated, inhibition, significance): 21/21 (100%), 23/25 (92%), 8%, not calculated
Carcinogen: ETHYL CARBAMATE, 51-79-6, Dose [Inhibitor]: 0, 0.04 MG/G PER DOSE IN 0.01 ML OF 0.9% SALINE ADMINISTERED IN 4 DOSES AT 3 HR INTERVALS BEGINNING 30 MIN PRIOR TO CARC, Route [Inhibitor]: INTRAPERITONEAL, Species: MOUSE, Strain/Sex: B6C3F1/MALE, Target Tissue: Type of Lesion: LIVER: HEPATOMA, Dose [Carcinogen]: 0.25 MG/G ONCE, Promoter: NONE USED
  tumour outcome (control, treated, inhibition, significance): 25/25 (100%), 24/24 (100%), 0%, not calculated
Carcinogen: ETHYL CARBAMATE, 51-79-6, Dose [Inhibitor]: 0, 0.04 MG/G PER DOSE IN 0.01 ML OF 0.9% SALINE ADMINISTERED IN 4 DOSES AT 3 HR INTERVALS BEGINNING 30 MIN PRIOR TO CARC, Route [Inhibitor]: INTRAPERITONEAL, Species: MOUSE, Strain/Sex: B6C3F1/MALE, Target Tissue: Type of Lesion: LIVER: HEPATOMA, Dose [Carcinogen]: 0.5 MG/G ONCE, Promoter: NONE USED
  tumour outcome (control, treated, inhibition, significance): 22/22 (100%), 21/22 (95%), 5%, not calculated
Carcinogen: VINYL CARBAMATE, 15805-73-9, Dose [Inhibitor]: 0, 0.04 MG/G PER DOSE IN 0.01 ML OF 0.9% SALINE ADMINISTERED IN 4 DOSES AT 3 HR INTERVALS BEGINNING 30 MIN PRIOR TO CARC, Route [Inhibitor]: INTRAPERITONEAL, Species: MOUSE, Strain/Sex: B6C3F1/MALE, Target Tissue: Type of Lesion: LIVER: HEPATOMA, Dose [Carcinogen]: 0.003 MG/G ONCE, Promoter: NONE USED
  tumour outcome (control, treated, inhibition, significance): 21/24 (88%), 25/25 (100%), -14%, not calculated
Carcinogen: VINYL CARBAMATE, 15805-73-9, Dose [Inhibitor]: 0, 0.04 MG/G PER DOSE IN 0.01 ML OF 0.9% SALINE ADMINISTERED IN 4 DOSES AT 3 HR INTERVALS BEGINNING 30 MIN PRIOR TO CARC, Route [Inhibitor]: INTRAPERITONEAL, Species: MOUSE, Strain/Sex: B6C3F1/MALE, Target Tissue: Type of Lesion: LIVER: HEPATOMA, Dose [Carcinogen]: 0.008 MG/G ONCE, Promoter: NONE USED
  tumour outcome (control, treated, inhibition, significance): 26/26 (100%), 22/23 (96%), 4%, not calculated
Carcinogen: VINYL CARBAMATE, 15805-73-9, Dose [Inhibitor]: 0, 0.04 MG/G PER DOSE IN 0.01 ML OF 0.9% SALINE ADMINISTERED IN 4 DOSES AT 3 HR INTERVALS BEGINNING 30 MIN PRIOR TO CARC, Route [Inhibitor]: INTRAPERITONEAL, Species: MOUSE, Strain/Sex: B6C3F1/MALE, Target Tissue: Type of Lesion: LIVER: HEPATOMA, Dose [Carcinogen]: 0.025 MG/G ONCE, Promoter: NONE USED
  tumour outcome (control, treated, inhibition, significance): 23/23 (100%), 24/25 (96%), 4%, not calculated

## N[C@@H]1C[C@H]1c1ccccc1
Carcinogen: N-METHYL-N-NITROSOUREA, 684-93-5, Dose [Inhibitor]: 10 MG/KG OF HIGH (20%) FAT DIET BEGINNING 1 WK POST CARCINOGEN DOSE AND CONTINUING FOR DURATION OF STUDY (STUDY DURATION, Route [Inhibitor]: ORAL, Species: RAT, Strain/Sex: SPRAGUE-DAWLEY/FEMALE, Target Tissue: Type of Lesion: MAMMARY GLAND: TUMOR, Dose [Carcinogen]: 40 MG/KG ONCE, Promoter: NONE USED
  tumour outcome (control, treated, inhibition, significance): 78%, 88%, -13%, not calculated
Carcinogen: N-METHYL-N-NITROSOUREA, 684-93-5, Dose [Inhibitor]: 10 MG/KG OF LOW (3%) FAT DIET BEGINNING 1 WK POST CARCINOGEN DOSE AND CONTINUING FOR DURATION OF STUDY (STUDY DURATION:, Route [Inhibitor]: ORAL, Species: RAT, Strain/Sex: SPRAGUE-DAWLEY/FEMALE, Target Tissue: Type of Lesion: MAMMARY GLAND: TUMOR, Dose [Carcinogen]: 40 MG/KG ONCE, Promoter: NONE USED
  tumour outcome (control, treated, inhibition, significance): 78%, 83%, -6%, not calculated
